Assays:
Escherichia coli [1] = test: Antimicrobial activity against Escherichia coli ATCC 25922 after 24 hrs by NCCLS-protocol based assay; format: functional; conditions: ATCC 25922, 24 h
Escherichia coli [2] = test: Antimicrobial activity against Escherichia coli UB1005 after 24 hrs by NCCLS-protocol based assay; format: functional; conditions: UB1005, 24 h
Escherichia coli [3] = test: Antimicrobial activity against Escherichia coli 078 after 24 hrs by NCCLS-protocol based assay; format: functional; conditions: Escherichia coli, 078, 24 h
Escherichia coli [4] = test: Antimicrobial activity against Escherichia coli K88 after 24 hrs by NCCLS-protocol based assay; format: functional; conditions: K88, 24 h
Escherichia coli [5] = test: Antimicrobial activity against Escherichia coli K99 after 24 hrs by NCCLS-protocol based assay; format: functional; conditions: K99, 24 h
Pseudomonas aeruginosa [6] = test: Antimicrobial activity against Pseudomonas aeruginosa ATCC 27853 after 24 hrs by NCCLS-protocol based assay; format: functional; conditions: ATCC 27853, 24 h
Pseudomonas aeruginosa [7] = test: Antimicrobial activity against Pseudomonas aeruginosa PAO1 after 24 hrs by NCCLS-protocol based assay; format: functional; conditions: PAO1, 24 h
Pseudomonas aeruginosa [8] = test: Antimicrobial activity against Pseudomonas aeruginosa CICC 21630 clinical isolates after 24 hrs by NCCLS-protocol based assay; format: functional; conditions: CICC 21630, 24 h
Pseudomonas aeruginosa [9] = test: Antimicrobial activity against Pseudomonas aeruginosa 26305 clinical isolates after 24 hrs by NCCLS-protocol based assay; format: functional; conditions: Pseudomonas aeruginosa, 26305, 24 h
Pseudomonas aeruginosa [10] = test: Antimicrobial activity against Pseudomonas aeruginosa CICC 21625 clinical isolates after 24 hrs by NCCLS-protocol based assay; format: functional; conditions: CICC 21625, 24 h
Pseudomonas aeruginosa [11] = test: Antimicrobial activity against Pseudomonas aeruginosa 25349 clinical isolates after 24 hrs by NCCLS-protocol based assay; format: functional; conditions: Pseudomonas aeruginosa, 25349, 24 h
Salmonella typhimurium [12] = test: Antimicrobial activity against Salmonella typhimurium ATCC 14028 after 24 hrs by NCCLS-protocol based assay; format: functional, Salmonella enterica subsp. enterica serovar Typhimurium; conditions: Salmonella enterica, ATCC 14028, 24 h
Salmonella typhimurium [13] = test: Antimicrobial activity against Salmonella typhimurium C7731 after 24 hrs by NCCLS-protocol based assay; format: functional, Salmonella enterica subsp. enterica serovar Typhimurium; conditions: Salmonella enterica, C7731, 24 h
[14] = Antimicrobial activity against Salmonella pullorum C7913 after 24 hrs by NCCLS-protocol based assay; format: functional, Salmonella enterica subsp. enterica serovar Pullorum; conditions: Salmonella enterica, C7913, 24 h
Acinetobacter baumannii [15] = test: Antimicrobial activity against Acinetobacter baumannii after 24 hrs by NCCLS-protocol based assay; format: functional
Klebsiella pneumoniae [16] = test: Antimicrobial activity against Klebsiella pneumoniae after 24 hrs by NCCLS-protocol based assay; format: functional
Escherichia coli [17] = test: Bactericidal activity against Escherichia coli ATCC 25922 incubated for 4 hrs followed by culture spread on agar plates and cultured overnight; format: functional; conditions: ATCC 25922, 4 h, read-out: MBC>99.9
Escherichia coli [18] = test: Bactericidal activity against Escherichia coli UB1005 incubated for 4 hrs followed by culture spread on agar plates and cultured overnight; format: functional; conditions: UB1005, 4 h, read-out: MBC>99.9
Escherichia coli [19] = test: Bactericidal activity against Escherichia coli 078 incubated for 4 hrs followed by culture spread on agar plates and cultured overnight; format: functional; conditions: Escherichia coli, 078, 4 h; read-out: MBC>99.9
Escherichia coli [20] = test: Bactericidal activity against Escherichia coli K88 incubated for 4 hrs followed by culture spread on agar plates and cultured overnight; format: functional; conditions: K88, 4 h, read-out: MBC>99.9
Escherichia coli [21] = test: Bactericidal activity against Escherichia coli K99 incubated for 4 hrs followed by culture spread on agar plates and cultured overnight; format: functional; conditions: K99, 4 h, read-out: MBC>99.9
Pseudomonas aeruginosa [22] = test: Bactericidal activity against Pseudomonas aeruginosa ATCC 27853 incubated for 4 hrs followed by culture spread on agar plates and cultured overnight; format: functional; conditions: ATCC 27853, 4 h, read-out: MBC>99.9
Pseudomonas aeruginosa [23] = test: Bactericidal activity against Pseudomonas aeruginosa PAO1 incubated for 4 hrs followed by culture spread on agar plates and cultured overnight; format: functional; conditions: PAO1, 4 h, read-out: MBC>99.9
Pseudomonas aeruginosa [24] = test: Bactericidal activity against Pseudomonas aeruginosa CICC 21630 clinical isolates incubated for 4 hrs followed by culture spread on agar plates and cultured overnight; format: functional; conditions: CICC 21630, 4 h, read-out: MBC>99.9
Pseudomonas aeruginosa [25] = test: Bactericidal activity against Pseudomonas aeruginosa 26305 clinical isolates incubated for 4 hrs followed by culture spread on agar plates and cultured overnight; format: functional; conditions: Pseudomonas aeruginosa, 26305, 4 h; read-out: MBC>99.9
Pseudomonas aeruginosa [26] = test: Bactericidal activity against Pseudomonas aeruginosa CICC 21625 clinical isolates incubated for 4 hrs followed by culture spread on agar plates and cultured overnight; format: functional; conditions: CICC 21625, 4 h, read-out: MBC>99.9
Pseudomonas aeruginosa [27] = test: Bactericidal activity against Pseudomonas aeruginosa 25349 clinical isolates incubated for 4 hrs followed by culture spread on agar plates and cultured overnight; format: functional; conditions: Pseudomonas aeruginosa, 25349, 4 h; read-out: MBC>99.9
Salmonella typhimurium [28] = test: Bactericidal activity against Salmonella typhimurium ATCC 14028 incubated for 4 hrs followed by culture spread on agar plates and cultured overnight; format: functional, Salmonella enterica subsp. enterica serovar Typhimurium; conditions: Salmonella enterica, ATCC 14028, 4 h; read-out: MBC>99.9
Salmonella typhimurium [29] = test: Bactericidal activity against Salmonella typhimurium C7731 incubated for 4 hrs followed by culture spread on agar plates and cultured overnight; format: functional, Salmonella enterica subsp. enterica serovar Typhimurium; conditions: Salmonella enterica, C7731, 4 h; read-out: MBC>99.9
[30] = Bactericidal activity against Salmonella pullorum C7913 incubated for 4 hrs followed by culture spread on agar plates and cultured overnight; format: functional, Salmonella enterica subsp. enterica serovar Pullorum; conditions: Salmonella enterica, C7913, 4 h; read-out: MBC>99.9
Acinetobacter baumannii [31] = test: Bactericidal activity against Acinetobacter baumannii incubated for 4 hrs followed by culture spread on agar plates and cultured overnight; format: functional; conditions: read-out: MBC>99.9
Klebsiella pneumoniae [32] = test: Bactericidal activity against Klebsiella pneumoniae incubated for 4 hrs followed by culture spread on agar plates and cultured overnight; format: functional; conditions: read-out: MBC>99.9

| Substance | MIC95 (Escherichia coli [1]) [µM] | MIC95 (Escherichia coli [2]) [µM] | MIC95 (Escherichia coli [3]) [µM] | MIC95 (Escherichia coli [4]) [µM] | MIC95 (Escherichia coli [5]) [µM] | MIC95 (Pseudomonas aeruginosa [6]) [µM] | MIC95 (Pseudomonas aeruginosa [7]) [µM] | MIC95 (Pseudomonas aeruginosa [8]) [µM] | MIC95 (Pseudomonas aeruginosa [9]) [µM] | MIC95 (Pseudomonas aeruginosa [10]) [µM] | MIC95 (Pseudomonas aeruginosa [11]) [µM] | MIC95 (Salmonella typhimurium [12]) [µM] | MIC95 (Salmonella typhimurium [13]) [µM] | MIC95 [14] [µM] | MIC95 (Acinetobacter baumannii [15]) [µM] | MIC95 (Klebsiella pneumoniae [16]) [µM] | MBC (Escherichia coli [17]) [µM] | MBC (Escherichia coli [18]) [µM] | MBC (Escherichia coli [19]) [µM] | MBC (Escherichia coli [20]) [µM] | also measured |
| --- | --- | --- | --- | --- | --- | --- | --- | --- | --- | --- | --- | --- | --- | --- | --- | --- | --- | --- | --- | --- | --- |
| H-VKPVVKPVVKPVVKPVVKPVVKPV-NH2 | > 64 | > 64 | > 64 | > 64 | > 64 | > 64 | > 64 | > 64 | > 64 | > 64 | > 64 | > 64 | > 64 | > 64 | > 64 | > 64 | > 64 | > 64 | > 64 | > 64 | MBC (Escherichia coli [21]): > 64 µM; MBC (Pseudomonas aeruginosa [22]): > 64 µM; MBC (Pseudomonas aeruginosa [23]): > 64 µM; MBC (Pseudomonas aeruginosa [24]): > 64 µM; MBC (Pseudomonas aeruginosa [25]): > 64 µM; MBC (Pseudomonas aeruginosa [26]): > 64 µM; MBC (Pseudomonas aeruginosa [27]): > 64 µM; MBC (Salmonella typhimurium [28]): > 64 µM; MBC (Salmonella typhimurium [29]): > 64 µM; MBC [30]: > 64 µM; MBC (Acinetobacter baumannii [31]): > 64 µM; MBC (Klebsiella pneumoniae [32]): > 64 µM |
| H-VKPVVKPVVKPVVKPVVKPVVKPVVKPV-NH2 | > 64 | > 64 | > 64 | > 64 | > 64 | > 64 | > 64 | > 64 | > 64 | > 64 | > 64 | > 64 | > 64 | > 64 | > 64 | > 64 | > 64 | > 64 | > 64 | > 64 | MBC (Escherichia coli [21]): > 64 µM; MBC (Pseudomonas aeruginosa [22]): > 64 µM; MBC (Pseudomonas aeruginosa [23]): > 64 µM; MBC (Pseudomonas aeruginosa [24]): > 64 µM; MBC (Pseudomonas aeruginosa [25]): > 64 µM; MBC (Pseudomonas aeruginosa [26]): > 64 µM; MBC (Pseudomonas aeruginosa [27]): > 64 µM; MBC (Salmonella typhimurium [28]): > 64 µM; MBC (Salmonella typhimurium [29]): > 64 µM; MBC [30]: > 64 µM; MBC (Acinetobacter baumannii [31]): > 64 µM; MBC (Klebsiella pneumoniae [32]): > 64 µM |
| H-VRPVVRPVVRPVVRPVVRPVVRPV-NH2 | 64 | 32 | 64 | 8 | 16 | > 64 | > 64 | > 64 | > 64 | > 64 | > 64 | 16 | 32 | 8 | 4 | > 64 | > 64 | 32 | > 64 | 8 | MBC (Escherichia coli [21]): 16 µM; MBC (Pseudomonas aeruginosa [22]): > 64 µM; MBC (Pseudomonas aeruginosa [23]): > 64 µM; MBC (Pseudomonas aeruginosa [24]): > 64 µM; MBC (Pseudomonas aeruginosa [25]): > 64 µM; MBC (Pseudomonas aeruginosa [26]): > 64 µM; MBC (Pseudomonas aeruginosa [27]): > 64 µM; MBC (Salmonella typhimurium [28]): 32 µM; MBC (Salmonella typhimurium [29]): 32 µM; MBC [30]: 16 µM; MBC (Acinetobacter baumannii [31]): 4 µM; MBC (Klebsiella pneumoniae [32]): > 64 µM |
